Measured values as given in PubChem BioAssay (NCI).
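In this assay, cells in 96-well plates receive the compound at five concentrations for 48 hours. Endpoints are linearly interpolated between the surrounding concentrations. GI50 = concentration required for 50% inhibition of growth. TGI denotes the concentration required for complete inhibition of growth.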

Key:
Assay in all cases: NCI anticancer screen, dose series, 48 h
NCI-H522 lung = test system: NCI-H522 lung
NCI-H23 lung = test system: NCI-H23 lung
MDA-MB-231 breast = test system: MDA-MB-231 breast
MCF7 breast = test system: MCF7 breast
KM12 colon = test system: KM12 colon
SR leukemia = test system: SR leukemia
SW-620 colon = test system: SW-620 colon
SK-OV-3 ovarian = test system: SK-OV-3 ovarian
OVCAR-5 ovarian = test system: OVCAR-5 ovarian
T-47D breast = test system: T-47D breast
HOP-62 NSCLC = test system: HOP-62 NSCLC
SN12C renal = test system: SN12C renal
DU-145 prostate = test system: DU-145 prostate
U251 CNS = test system: U251 CNS
SNB-19 CNS = test system: SNB-19 CNS
ACHN renal = test system: ACHN renal
BT-549 breast = test system: BT-549 breast
CAKI-1 renal = test system: CAKI-1 renal
A498 renal = test system: A498 renal
HS 578T breast = test system: HS 578T breast
HCC-2998 colon = test system: HCC-2998 colon
PC-3 prostate = test system: PC-3 prostate
MALME-3M melanoma = test system: MALME-3M melanoma
SF-268 CNS = test system: SF-268 CNS
UO-31 renal = test system: UO-31 renal
SF-295 CNS = test system: SF-295 CNS
HCT-15 colon = test system: HCT-15 colon
NCI-H460 lung = test system: NCI-H460 lung
A549 NSCLC = test system: A549 NSCLC
OVCAR-4 ovarian = test system: OVCAR-4 ovarian
HT29 colon = test system: HT29 colon
NCI/ADR-RES ovarian = test system: NCI/ADR-RES ovarian
MDA-MB-435 = test system: MDA-MB-435
RPMI-8226 leukemia = test system: RPMI-8226 leukemia
RXF 393 renal = test system: RXF 393 renal
SK-MEL-5 melanoma = test system: SK-MEL-5 melanoma
COLO 205 colon = test system: COLO 205 colon
LOX IMVI melanoma = test system: LOX IMVI melanoma
IGROV1 ovarian = test system: IGROV1 ovarian
HOP-92 NSCLC = test system: HOP-92 NSCLC
K-562 leukemia = test system: K-562 leukemia
TK-10 renal = test system: TK-10 renal
UACC-62 melanoma = test system: UACC-62 melanoma
786-0 renal = test system: 786-0 renal
OVCAR-3 ovarian = test system: OVCAR-3 ovarian
CCRF-CEM leukemia = test system: CCRF-CEM leukemia
OVCAR-8 ovarian = test system: OVCAR-8 ovarian
UACC-257 melanoma = test system: UACC-257 melanoma
MOLT-4 leukemia = test system: MOLT-4 leukemia
M14 melanoma = test system: M14 melanoma
SF-539 CNS = test system: SF-539 CNS
NCI-H226 lung = test system: NCI-H226 lung
SK-MEL-2 melanoma = test system: SK-MEL-2 melanoma
HCT-116 colon = test system: HCT-116 colon
SK-MEL-28 melanoma = test system: SK-MEL-28 melanoma
HL-60(TB) leukemia = test system: HL-60(TB) leukemia
SNB-75 CNS = test system: SNB-75 CNS

CCN(Cc1ccccn1)c1ccc(CO)c(Cl)c1
GI50 (NCI-H522 lung): > 100 µM
TGI (NCI-H522 lung): > 100 µM
GI50 (NCI-H23 lung): > 100 µM
TGI (NCI-H23 lung): > 100 µM
GI50 (MDA-MB-231 breast): > 100 µM
TGI (MDA-MB-231 breast): > 100 µM
GI50 (MCF7 breast): 2.78 µM
TGI (MCF7 breast): > 100 µM
GI50 (KM12 colon): > 100 µM
TGI (KM12 colon): > 100 µM
GI50 (SR leukemia): > 100 µM
TGI (SR leukemia): > 100 µM
GI50 (SW-620 colon): 22.8 µM
TGI (SW-620 colon): > 100 µM
GI50 (SK-OV-3 ovarian): 36.1 µM
TGI (SK-OV-3 ovarian): > 100 µM
GI50 (OVCAR-5 ovarian): 0.385 µM
TGI (OVCAR-5 ovarian): 1.58 µM
GI50 (T-47D breast): 0.927 µM
TGI (T-47D breast): 5.5 µM
GI50 (HOP-62 NSCLC): 46.1 µM
TGI (HOP-62 NSCLC): > 100 µM
GI50 (SN12C renal): > 100 µM
TGI (SN12C renal): > 100 µM
GI50 (DU-145 prostate): > 100 µM
TGI (DU-145 prostate): > 100 µM
GI50 (U251 CNS): 23.6 µM
TGI (U251 CNS): > 100 µM
GI50 (SNB-19 CNS): > 100 µM
TGI (SNB-19 CNS): > 100 µM
GI50 (ACHN renal): > 100 µM
TGI (ACHN renal): > 100 µM
GI50 (BT-549 breast): > 100 µM
TGI (BT-549 breast): > 100 µM
GI50 (CAKI-1 renal): 39 µM
TGI (CAKI-1 renal): > 100 µM
GI50 (A498 renal): 0.125 µM
TGI (A498 renal): 0.266 µM
GI50 (HS 578T breast): > 100 µM
TGI (HS 578T breast): > 100 µM
GI50 (HCC-2998 colon): 18.1 µM
TGI (HCC-2998 colon): > 100 µM
GI50 (PC-3 prostate): > 89.8 µM
TGI (PC-3 prostate): > 100 µM
GI50 (MALME-3M melanoma): > 100 µM
TGI (MALME-3M melanoma): > 100 µM
GI50 (SF-268 CNS): > 100 µM
TGI (SF-268 CNS): > 100 µM
GI50 (UO-31 renal): 69.3 µM
TGI (UO-31 renal): > 100 µM
GI50 (SF-295 CNS): 4.91 µM
TGI (SF-295 CNS): > 100 µM
GI50 (HCT-15 colon): > 100 µM
TGI (HCT-15 colon): > 100 µM
GI50 (NCI-H460 lung): 2.71 µM
TGI (NCI-H460 lung): 40.7 µM
GI50 (A549 NSCLC): 16.6 µM
TGI (A549 NSCLC): > 100 µM
GI50 (OVCAR-4 ovarian): 2.32 µM
TGI (OVCAR-4 ovarian): 34.7 µM
GI50 (HT29 colon): > 69.8 µM
TGI (HT29 colon): > 100 µM
GI50 (NCI/ADR-RES ovarian): 52.2 µM
TGI (NCI/ADR-RES ovarian): > 100 µM
GI50 (MDA-MB-435): > 100 µM
TGI (MDA-MB-435): > 100 µM
GI50 (RPMI-8226 leukemia): 26.3 µM
TGI (RPMI-8226 leukemia): > 100 µM
GI50 (RXF 393 renal): > 28.4 µM
TGI (RXF 393 renal): > 100 µM
GI50 (SK-MEL-5 melanoma): 72.1 µM
TGI (SK-MEL-5 melanoma): > 100 µM
GI50 (COLO 205 colon): 4.65 µM
TGI (COLO 205 colon): 16 µM
GI50 (LOX IMVI melanoma): > 100 µM
TGI (LOX IMVI melanoma): > 100 µM
GI50 (IGROV1 ovarian): 0.68 µM
TGI (IGROV1 ovarian): 3.89 µM
GI50 (HOP-92 NSCLC): 10 µM
TGI (HOP-92 NSCLC): > 96.6 µM
GI50 (K-562 leukemia): 17.3 µM
TGI (K-562 leukemia): > 100 µM
GI50 (TK-10 renal): 0.199 µM
TGI (TK-10 renal): 0.744 µM
GI50 (UACC-62 melanoma): 0.923 µM
TGI (UACC-62 melanoma): 7.83 µM
GI50 (786-0 renal): > 100 µM
TGI (786-0 renal): > 100 µM
GI50 (OVCAR-3 ovarian): 3.75 µM
TGI (OVCAR-3 ovarian): 23.3 µM
GI50 (CCRF-CEM leukemia): > 100 µM
TGI (CCRF-CEM leukemia): > 100 µM
GI50 (OVCAR-8 ovarian): 59.4 µM
TGI (OVCAR-8 ovarian): > 100 µM
GI50 (UACC-257 melanoma): 0.719 µM
TGI (UACC-257 melanoma): 2.42 µM
GI50 (MOLT-4 leukemia): > 100 µM
TGI (MOLT-4 leukemia): > 100 µM
GI50 (M14 melanoma): > 100 µM
TGI (M14 melanoma): > 100 µM
GI50 (SF-539 CNS): > 100 µM
TGI (SF-539 CNS): > 100 µM
GI50 (NCI-H226 lung): 0.151 µM
TGI (NCI-H226 lung): 0.332 µM
GI50 (SK-MEL-2 melanoma): > 76.8 µM
TGI (SK-MEL-2 melanoma): > 100 µM
GI50 (HCT-116 colon): 1.12 µM
TGI (HCT-116 colon): > 100 µM
GI50 (SK-MEL-28 melanoma): > 100 µM
TGI (SK-MEL-28 melanoma): > 100 µM
GI50 (HL-60(TB) leukemia): 46 µM
TGI (HL-60(TB) leukemia): > 100 µM
GI50 (SNB-75 CNS): > 51.7 µM
TGI (SNB-75 CNS): > 100 µM
